Reference: US5008126A, “Long chain diol diesters as low calorie fat mimetics” (Nabisco Brands, Inc., priority 1989, dated 1991)

How the values were obtained:
[1] = in vitro digestibility (lipase hydrolysis, TLC densitometry); format: in vitro ADME, porcine; details: pig, pancreatic lipase; in three hours; 37° C., pH 7.1 phosphate buffer with cholic acid; read-out: hydrolyzed (extent of hydrolysis by lipase)
Method: (§1) This example outlines the procedure for estimating the in vitro digestibility of the long chain diol diesters of this invention.
(§2) 1. Buffer: A pH 7.1 phosphate buffer is prepared by dissolving 6.8 g. KH2 PO4 in 1 L. of millipore filtered water (to yield 0.05M phosphate). Fifty mg. Ca(NO3)2 and 5.0 g. cholic acid (Na salt, an ox bile isolate from Sigma) are added to give 300 microM Ca^++ and 0.5 % cholic acid in 0.05M phosphate. The pH is adjusted to approximately 7.1 with solid NaOH. Several drops of Baker "Resi-analyzed" toluene are added to prevent bacterial growth during storage at 3°-5° C.
(§3) 2. Lipase: About 15 mg./mL commercial porcine pancreatic lipase from U.S. Biochemical Corporation is dissolved in buffer.
(§4) 3. Substrates and Standards: A 1.0 mL volumetric flask is charged with an amount of lipid substrate calculated to give a concentration of 200 nanomoles per microliter in Baker "Resi-analyzed" toluene. (The proper concentration may be approximated by doubling the molecular weight of the lipid in question, dividing by 10, and diluting to the mark; this yields about 200 nanomoles per microliter.) This preparation affords the substrate to be used in the hydrolysis reactions. […]

[2] = caloric availability by in vivo animal feeding study (body weight gain); parameters: species or system male Sprague-Dawley rats; details: rats, diet of 50% fort and 21% test compound, 14 days; from weight gain versus corn oil base line
Source text: This example illustrates how the novel fat mimetics of this invention are screened for caloric availability by a carefully controlled in vivo animal feeding study.
An experimental relationship between total calories ingested and animal body weight gain is established by monitoring the body weight gain associated with consumption of a nutritionally balanced diet containing varying concentrations of a reference substance such as corn oil which has a known caloric availability. Correlations between total calories ingested and body weight gain are excellent (r=0.99).
Caloric availability of an unknown substance is evaluated by substituting a specific weight of the unknown substance for the reference substance and observing the body weight gain. The gain in body weight is equated to a total number of calories using the correlation previously established for the reference data. The estimated number of calories ingested are divided by the weight of unknown substance to give the apparent calories per gram for the unknown substance. Generally speaking, in these bioavailability studies, the degree of perianal pelt soiling correlates with reduced bioavailability.
The test animals are six-week-old male Sprague-Dawley rats obtained from the Portage, Mich. facility of the Charles River Laboratories, Inc. After acclimation for 15 days, the test duration is 14 days. […]

[3] = test system: porcine pancreatic lipase; test: in vitro digestibility (lipase hydrolysis, TLC densitometry); format: in vitro ADME; details: in 10 minutes; 37° C., pH 7.1 phosphate buffer with cholic acid
Method: as §1, §2, §3, §4

metabolised at 3 h [1] [%] | hydrolysis by lipase (in words) [3] | Compound | caloric availability (kcal/gram upon being metabolized) [2]
~20 |  | CCCCCCCC/C=C\CCCCCCCC(=O)OCC(CCCCCCCCCCCC)OC(=O)CCCCCCC/C=C\CCCCCCCC (stereo not drawn) [Example 1, 1,2 Tetradecane dioleate] | about 6.0 kcal/gram
 | substantially hydrolyzed | CCCCCCCC/C=C\CCCCCCCC(=O)OCC(COC(=O)CCCCCCC/C=C\CCCCCCCC)OC(=O)CCCCCCC/C=C\CCCCCCCC [triolein, reference compound] | 
